# Assay results taken from US5665719A, “Benzoxazinone and benzopyrimidinone piperidinyl tocolytic oxytocin receptor antagonists” (Merck & Co., Inc., priority 1995, dated 1997).
# Where two headings read alike, the source gives them in different places.
# Target: T1, uterine OT receptors (Rattus norvegicus, UniProt P70536)
# T1 construct: from tissue; host or cells: uterus of diethylstilbestrol dipropionate (DES)-treated rats, crude membrane preparation
# T1 sequence (P70536 1-388): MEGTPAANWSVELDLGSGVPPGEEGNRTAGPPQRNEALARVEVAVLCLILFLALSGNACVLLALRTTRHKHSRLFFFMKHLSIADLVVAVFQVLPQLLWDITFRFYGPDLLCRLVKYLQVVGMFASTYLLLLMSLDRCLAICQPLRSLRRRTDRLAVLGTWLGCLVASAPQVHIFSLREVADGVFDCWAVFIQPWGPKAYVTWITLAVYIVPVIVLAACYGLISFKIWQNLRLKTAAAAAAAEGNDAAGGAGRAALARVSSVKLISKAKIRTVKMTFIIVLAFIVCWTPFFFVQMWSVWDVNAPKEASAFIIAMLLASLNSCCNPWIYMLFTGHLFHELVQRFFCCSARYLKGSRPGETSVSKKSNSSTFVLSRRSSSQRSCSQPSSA
# Assay: [3H]Oxytocin (OT) radioligand binding to uterine OT receptors, crude uterine membranes from DES-treated rats
# Conditions: for inhibition at 10 µM: inhibition at 10,000 nM, read-out: Result For [3H]OT (% inhib. at 10,000 nM); for inhibition at 10 µM / inhibition at 1 µM: 1 nM [3H]OT, pH 7.4; for inhibition at 1 µM: inhibition at 1,000 nM, read-out: Result For [3H]OT (% inhib. at 1,000 nM)
# Method: Competition studies were conducted at equilibrium (60 minutes; 22° C.) using 1 nM[^3 H]OT in the following assay buffer: 50 mM Tris-HCl, 5 mM MgCl2, and 0.1% BSA, pH 7.4. Nonspecific binding (10% of the total binding) was determined using 1 μM unlabeled OT and the binding reaction was terminated by filtration through glass fiber filters using a cell harvester (model 7019, Skatron, Inc., Sterling, Va.).
# IC50 values were determined for the [^3 H]OT and [^3 H]AVP binding assays by linear regression of the relation log concentration of compound vs. percent inhibition of specific binding. Data is either reported as a given percentage of inhibition at a specified concentration,or if an IC50 was calculated, as a nanomolar concentration.
SMILES,IC50 [nM],other results
COc1cc(OC)c(C(=O)N2CCC(N3C(=O)OCc4ccccc43)CC2)c(OC)c1 [Example 1],,"inhibition at 10 µM (60 minutes, 22° C.): 61%"
"COc1cc(OC2CCN(S(=O)(=O)CCCN(C)C3CC3)CC2)ccc1C(=O)N1CCC(N2C(=O)OCc3ccccc32)CC1 [Example 66, 1-(1-(4-(1-((3-N-Cyclopropyl-N-methylamino)propylsulfonyl)piperidin-4-yloxy)-2-methoxybenzoyl)piperidin-4-yl)-1,2-dihydro-4(H)-3,1-benzoxazin-2-one]",25,
"O=C(c1ccc(OCC2CCCNC2)cc1)N1CCC(N2C(=O)OCc3ccccc32)CC1 (centres unmarked) [Example 32, 1-(1-(4-(3-Piperidinylmethoxy)benzoyl)piperidin-4-yl)-1,2-dihydro-4(H)-3,1-benzoxazin-2-one]",,"inhibition at 10 µM (60 minutes, 22° C.): 78%"
"COc1cc(OC2CCN(C(=O)CCCN)CC2)ccc1C(=O)N1CCC(N2C(=O)OCc3ccccc32)CC1 [Example 30, 1-(1-(4-(1-(4-Aminobutanoyl)-4-piperidinyloxy)-2-methoxybenzoyl)piperidin-4-yl)-1,2-dihydro-4(H)-3,1-benzoxazin-2-one]",69,
"COc1cc(OCCCNC(=O)C2CCNCC2)ccc1C(=O)N1CCC(N2C(=O)OCc3ccccc32)CC1 [Example 14, 1-(1-(4-(3-(4-Piperidinylcarbonylamino)propoxy)-2-methoxybenzoyl)piperidin-4-yl)-1,2-dihydro-4(H)-3,1-benzoxazin-2-one]",74,
O=C(c1cc2ccccc2[nH]1)N1CCC(N2C(=O)OCc3ccccc32)CC1 [Example 4],,"inhibition at 10 µM (60 minutes, 22° C.): 78%"
"COc1ccc(C(=O)N2CCC(N3C(=O)Cc4ccccc43)CC2)c(OC)c1 [Example 55, 1-(1-(2,4-dimethoxybenzoyl)-4-piperidyl)indol-2-one]",6200,
"COc1ccc(C(=O)N2CCC(N3C(=O)OCc4ccccc43)CC2C#N)c(OC)c1 (centres unmarked) [Example 60, 1-(1-(2,4-dimethoxybenzoyl)-2-cyanopiperidin-4-yl)-1,2-dihydro-4(H)-3,1-benzoxazin-2-one]",,"inhibition at 10 µM (60 minutes, 22° C.): 70%"
"O=C(/C=C/c1ccccc1)N1CCC(N2C(=O)OCc3ccccc32)CC1 [Example 7, 1-(1-(Cinnamoyl)piperidin-4-yl)-1,2-dihydro-4(H)-3,1-benzoxazin-2-one]",6200,
"COc1cc(OC2CCN(C(=O)OC(C)(C)C)CC2)ccc1C(=O)N1CCC(N2C(=O)COc3ccccc32)CC1 [Example 41, 4-(1-(4-(4-(1-t-Butyloxycarbonyl)piperidinyloxy)-2-methoxybenzoyl)piperidin-4-yl)-(2H)-1,4-benzoxazin-3(4H)-one]",,"inhibition at 1 µM (60 minutes, 22° C.): 42%"
"O=C(c1ccc(OC2CCNCC2)cc1Cl)N1CCC(N2C(=O)OCc3ccccc32)CC1 [Example 52, 1-(1-(4-(4-Piperidinyloxy)-2-chlorobenzoyl)piperidin-4-yl)-1,2-dihydro-4(H)-3,1-benzoxazin-2-one]",4300,
"Cc1cc(OC2CCN(C(=O)OC(C)(C)C)CC2)ccc1C(=O)N1CCC(N2C(=O)OCc3ccccc32)CC1 [Example 43, 1-(1-(4-(N-t-Butoxycarbonyl-4-piperidinyloxy)-2-methylbenzoyl)piperidin-4-yl)-1,2-dihydro-4(H)-3,1-benzoxazin-2-one]",,"inhibition at 1 µM (60 minutes, 22° C.): 59%"
"COc1cc(C(=O)N2CCN(C(=O)OC(C)(C)C)CC2)ccc1C(=O)N1CCC(N2C(=O)OCc3ccccc32)CC1 [Example 39, 1-(1-(4-(4-(t-Butyloxycarbonyl)piperazin-1-ylcarbonyl)-2-methoxybenzoyl)piperidin-4-yl)-1,2-dihydro-4(H)-3,1-benzoxazin-2-one]",,"inhibition at 1 µM (60 minutes, 22° C.): 46%"
"CCOC(=O)CN1CCC(Oc2ccc(C(=O)N3CCC(N4C(=O)OCc5ccccc54)CC3)c(OC)c2)CC1 [Example 48, 1-(1-(4-(1-(Ethoxycarbonylmethyl)-4-piperidinyloxy)-2-methoxybenzoyl)piperidin-4-yl)-1,2-dihydro-4(H)-3,1-benzoxazin-2-one]",340,
"COc1ccc(C(=O)N2CCC(N3C(=O)N(C)Cc4ccccc43)CC2)c(OC)c1 [Example 36, 1-(2,4-Dimethoxybenzoylpiperidin-4-yl)-3,4-dihydro-3-methylquinazolin-2(1H)-one]",,"inhibition at 10 µM (60 minutes, 22° C.): 48%"
"O=C(Nc1ccc(CC(=O)N2CCC(N3C(=O)OCc4ccccc43)CC2)cc1)c1ccc2[nH]cnc2c1 [Example 9, 1-(1-(4-((5-Benzimidazolylcarbonyl)amino)phenylacetyl)piperidin-4-yl)-1,2-dihydro-4(H)-3,1-benzoxazin-2-one]",280,
"COc1ccc(C(=O)N2CCC(N3C(=O)OC(C)(C)c4ccccc43)CC2)c(OC)c1 [Example 61, 1-(1-(2,4-dimethoxybenzoyl)piperidin-4-yl)-4,4-dimethyl-1,2-dihydro-4(H)-3,1-benzoxazin-2-one]",,"inhibition at 10 µM (60 minutes, 22° C.): 64%"
"COc1cc(OC2CCN(C(=O)Cc3cnc[nH]3)CC2)ccc1C(=O)N1CCC(N2C(=O)OCc3ccccc32)CC1 [Example 45, 1-(1-(4-(1-(4(5)-Imidazolylacetyl)-4-piperidinyloxy)-2-methoxybenzoyl)piperidin-4-yl)-1,2-dihydro-4(H)-3,1-benzoxazin-2-one]",44,
"COc1ccc(C(=O)N2CCC(N3C(=O)OCc4ccccc43)CC2)c([N+](=O)[O-])c1 [Example 44, 1-(1-(4-Methoxy-2-nitrobenzoyl)piperidin-4-yl)-1,2-dihydro-4(H)-3,1-benzoxazin-2-one]",5000,
"COc1cc(OCCCN)ccc1C(=O)N1CCC(N2C(=O)OCc3ccccc32)CC1 [Example 12, 1-(1-(4-(3-Aminopropoxy)-2-methoxybenzoyl)piperidin-4-yl)-1,2-dihydro-4(H)-3,1-benzoxazin-2-one]",410,
"COc1cc(OCCCN2C(=O)CN(C)C2=O)ccc1C(=O)N1CCC(N2C(=O)OCc3ccccc32)CC1 [Example 22, 1-(1-(4-(3-(1-Methylimidazoline-2,4-dione-3-yl)propoxy)-2-methoxybenzoyl)piperidin-4-yl)-1,2-dihydro-4(H)-3,1-benzoxazin-2-one]",260,
"CC(C)(C)OC(=O)N1CCC(C(=O)NCCCOc2ccc(C(=O)N3CCC(N4C(=O)OCc5ccccc54)CC3)c(O)c2)CC1 [Example 49, 1-(1-(4-(3-(N-t-Butyloxycarbonylpiperidin-4-ylcarbonylamino)propoxy)-2-hydroxybenzoyl)piperidin-4-yl)-1,2-dihydro-4(H)-3,1-benzoxazin-2-one]",,"inhibition at 1 µM (60 minutes, 22° C.): 72%"
O=C(c1ccccn1)N1CCC(N2C(=O)OCc3ccccc32)CC1 [Example 3],,"inhibition at 10 µM (60 minutes, 22° C.): 40%"
"COc1ccc(C(=O)N2CC(N3C(=O)OCc4ccccc43)C2)c(OC)c1 [Example 57, 1-(1-(2,4-Dimethoxybenzoyl)azetidin-3-yl)-1,2-dihydro-4(H)-3,1-benzoxazin-2-one]",,"inhibition at 10 µM (60 minutes, 22° C.): 54%"
"COc1cc(OCCCNS(C)(=O)=O)ccc1C(=O)N1CCC(N2C(=O)OCc3ccccc32)CC1 [Example 17, 1-(1-(4-(3-((Methylsulfonyl)amino)propoxy)-2-methoxybenzoyl)piperidin-4-yl)-1,2-dihydro-4(H)-3,1-benzoxazin-2-one]",81,
"CC(=O)N(C)CCCOc1ccc(C(=O)N2CCC(N3C(=O)OCc4ccccc43)CC2)cc1 [Example 24, 1-(1-(4-(3-(N-Methyl(acetylamino))propoxy)benzoyl)piperidin-4-yl)-1,2-dihydro-4(H)-3,1-benzoxazin-2-one]",550,
"COc1ccc(C(=O)N2CCC(N3C(=O)OCc4sccc43)CC2)c(OC)c1 [Example 63, 1-(1-(2,4-dimethoxybenzoyl)piperidin-4-yl)-1,2-dihydro-4 (H)-3,1-thienoxazin-2-one]",,"IC50 (competition vs 1 nM [3H]OT, 60 minutes, 22° C., pH 7.4, rat uterus membranes, read-out: Result For [3H]OT (IC50)): 590 nM"
"COc1cc(OCCCNC(=O)C2CCNCC2)c(Cl)cc1C(=O)N1CCC(N2C(=O)OCc3ccccc32)CC1 [Example 15, 1-(1-(4-(3-(4-Piperidinylcarbonylamino)propoxy)-6-methoxy-3-chlorobenzoyl)piperidin-4-yl)-1,2-dihydro-4(H)-3,1-benzoxazin-2-one]",56,
"CCN(CC)CCS(=O)(=O)N1CCC(Oc2ccc(C(=O)N3CCC(N4C(=O)OCc5ccccc54)CC3)c(OC)c2)CC1 [Example 46, 1-(1-(4-(1-(Diethylaminoethylsulfonyl)-4-piperidinyloxy)-2-methoxybenzoyl)piperidin-4-yl)-1,2-dihydro-4(H)-3,1-benzoxazin-2-one]",23,
